Patent publication US11464840B2, “Universal non-classical MHC I vaccines: HLA-E-restricted antigenic peptides as universal vaccines to treat allergy, inflammation, autoimmune and infectious diseases, and cancers” (priority 2019, dated 2022)
Several values for one entry are separate records, joined by “and”; a condition that tells them apart may be missing. Equal entries are not always repeated. Values belong to the molecule of their own block, whether it stands above or below them. Ends that are not written are not given here.

Legend:
Derlin-1 mRNA [1] = assay: Derlin-1 mRNA knockdown by siRNA in monocyte-derived dendritic cells (qPCR, ΔΔCt); format: cell-based, human; settings: for Derlin-1 mRNA knockdown (KD): MODC
Procedure: (§1) Table 1: Summary of Derlin-1 Knockdowns with Various siRNAs. Cells transfected in 12 well plate at 60%-80% confluency. one ul Viromer blue was used per 1 ml final volume. Cells were lysed via centrifugation and resuspended in TRI reagent at time points of either 6 h, 24 h, and 48 h. Lysates were split for both protein verification and qPCR. Knockdowns are estimated using the ΔΔCt method. […] Anti-Derlin-1 siRNA was designed using MITs website (sirna.wi.mit.edu) and siRNA design software (dharmacon.horizondiscovery.com/rnai/sirna). SiRNA were chosen based on the criteria that they would bind no more than 15 nucleotides on off-target mRNA and that they would be capable of knockdown for all four of the Derlin-1 mRNA isoforms. Additionally, siRNAs with 40-60% GC content, no more than 3 identical nucleotides in a row, and 3′ UU overhangs were used. The first siRNA (SEQ ID NO: 65, 5′-[…]-3′) was purchased from TriLink Biotechnologies and the second (SEQ ID NO: 66, 5′-[…]-3′) was purchased from Horizon Discovery. A third, modified siRNA with sequence 5′-SEQ ID NO: 67, O′me/G/O′me/[…]-3′ and DNA bases on the 1st and 8th nucleotide of the antisense strand was also designed and purchased from Horizontal Discovery. Scramble siRNAs were purchased from Horizontal Discovery (D-001810-10-05, ON-TARGET plus Non-targeting Pool).
(§2) Derlin-1 forms an integral part of the […] machinery required for transporting classical MHCI, e.g., HLA-A, -B, -C for proteasome degradation. […] In contrast, the protein band of Derlin-1 is entirely missing in Derlin-1 siRNA-treated MoDCs. Transfection of the primary cells were performed using PEI reagents (Viromer Blue vs. Viromer Red). The embodiment of the invention is three-fold. One aspect of the embodiment resides in treating APC with Derlin-1 RNA interference to prevent the generation of endogenous leader peptide as well as to cause dissociation of the HLA-E bound endogenous leader peptides so that Derlin-1-treated APC can be fully loaded with the HLA-E vaccines in the presence of the second costimulatory signal for immune induction.

Derlin-1 mRNA [2] = assay: Derlin-1 mRNA knockdown by siRNA in T2 cells (qPCR, ΔΔCt); format: cell-based, human; settings: for Derlin-1 mRNA knockdown (KD): 6 Hours
Procedure: as §1, with “Pool). […]” for “Pool).”

Derlin-1 mRNA [3] = assay: Derlin-1 mRNA knockdown by siRNA in B721.221 cells (qPCR, ΔΔCt); format: cell-based, human; settings: 6 hours
Procedure: as §1, with “Pool). […]” for “Pool).”

Derlin-1 = Derlin-1 knockdown protein verification by Western blot in MoDCs; format: cell-based, human
Text: FIG. 9. Derlin-1 siRNA knocked down Derlin-1 translation in dendritic cells and B and T cell tumors by western blots. (A) Comparison of two different PEI reagent. Viromer blue vs Viromer red with respect to Cy3-labeled siRNA (B) and toxicity (C). Derlin-1 Knockdown Protein Verification by Western Blot (A). Confirms the knockdown of protein levels in MoDCs by Derlin-1 siRNA #2. For Lanes 1, 2, 5, and 6, the respective knockdowns were 49%, 57%, 67%, and 72%. Scramble included at concentration of 25 nM in wells (3) and (7). Wells (4) and (8) contain RPMI medium only. Mouse Anti-Derlin-1 mAb added at concentration of 1:1000 and Goat Anti-mouse IgG1 added at 1:10,000. (B) Transfection Ability of Viromer red/blue vs Lipofectamine RNAiMax. TAP-deficient T2-cells transfected with cy3-conjugated siRNA at 10 nM using manufacturer's recommended protocol for each reagent. Cells were stained, fixed, and detected 24 hours after transfection. PE laser was used to detect cells on BD LSR II. A shift to the right indicates a more efficient transfection reagent. (C) Cytotoxicity of Viromer RED/BLUE vs Lipofectamine RNAiMax. Extracellular staining of T2 cells with Annexin V was used to determine the number of cells undergoing active apoptosis after transfection with each reagent. BV421 laser was used to detect cells on BD LSR II. Cells were stained, fixed, and detected 24 hours after transfection.
as §2

HLA-E = assay: Surface HLA-E expression in immature MoDC cells (FACS); format: cell-based, human; settings: 100 nM SR11237, 100 nM Bexarotene or Interferon-β 1,000 U, 4 days
Procedure: FIG. 5. […] MoDCs were then collected and stained with fluorescence-conjugated antibody; APC-conjugated anti-CD83 (Biolegend) and PE-conjugated HLA-E (Biolegend) followed by fixation with 2% paraformaldehyde. Phenotype and HLA-E expression of MoDCs were performed by using a FACS, LRSII flow cytometry and the data were processed by using the Flowjo software.

HLA-G [4] = assay: Surface HLA-G expression in immature MoDC cells (FACS); format: cell-based, human; settings: 100 nM SR11237, 100 nM Bexarotene or Interferon-β 1,000 U, 4 days
HLA-G [5] = assay: Surface HLA-G expression of CD8 T cells co-cultured with peptide-pulsed MoDCs (FACS); format: cell-based, human; settings: immature and mature MoDC pulsed with A2 peptides of IgE epitope, SR11237 100 nmol/L, co-culture 5 days
Procedure: FIG. 7. Modulation of HLA-G by RXR agonist. Surface HLA-G expression of CD8 T cells was observed induced by RXRα agonist, SR11237 (100 nmol/L)-treated immature (A) and mature (B) MoDCs in presence of A2 mix peptides (Biomatik). MoDCs isolated from A2 type of PBMCs, were cultured in 10% FBS RPMI with 200 U/ml IL-4 and 100 U/ml GM-CSF for 5 days as immature MoDCs and then proceeded for maturation with addition of cytokines cocktail containing TNFα (10 ng/ml), PGE2 (1 μg/ml), IL-6 (150 ng/ml) and IL-1β (5 ng/ml) (Biolegend) for another two days. Both mature and immature MoDC were incubated with SR11237 for 2 days and pulsed with A2 peptides of IgE epitope for 4 hr. Then MoDCs were co-cultured in anti-CD3 (10 μg/ml) coated plate for 5 days with T cells isolated from PBMCs by adhering PBMC to 100×20 mm plate and collecting suspended cells. Cells were then collected and stained with Alex Fluor 488-conjugated human CD8 and PE-Cy 7-conjugated human HLA G followed by fixation with 2% paraformaldehyde. Phenotype and HLA G expression of T cells were performed by using a FACS, LRSII flow cytometry, data were processed as describe above.

the three HLA-E preps [6] = assay: ELISA: renatured complex captured on anti-HLA-E coated plate, bound biotinylated peptide detected with HRP-avidin; peptide at 0.1 µg/ml
the three HLA-E preps [7] = assay: ELISA: renatured complex captured on anti-HLA-E coated plate, bound biotinylated peptide detected with HRP-avidin; peptide at 1.0 µg/ml

Molecule: 5′-GGACUUGGGAGGAAGAAAUUU-3′ (listed as RNA, chemistry not given here; listed as Homo sapiens) [Derlin siRNA #2]
Derlin-1 mRNA knockdown (KD) (Derlin-1 mRNA [1]; 25 nM siRNA, Day 1): 49%
Derlin-1 mRNA knockdown (KD) (Derlin-1 mRNA [1]; 25 nM siRNA, Day 2): 67%
Derlin-1 mRNA knockdown (KD) (Derlin-1 mRNA [1]; 50 nM siRNA, Day 1): 57%
Derlin-1 mRNA knockdown (KD) (Derlin-1 mRNA [1]; 50 nM siRNA, Day 2): 72%
effectiveness in reducing Derlin-1 mRNA levels, compared among siRNAs (Derlin-1 mRNA [1]; monocyte-derived dendritic cells): most effective
Derlin-1 mRNA knockdown (KD) (Derlin-1 mRNA [2]; T2, 2.5 nM siRNA): 62%
Derlin-1 mRNA knockdown (KD) (Derlin-1 mRNA [2]; T2, 5 nM siRNA): 43%
Derlin-1 mRNA knockdown (KD) (Derlin-1 mRNA [2]; T2, 10 nM siRNA): 34%
effectiveness in reducing Derlin-1 mRNA levels, compared among siRNAs (Derlin-1 mRNA [2]; T2 cells): most effective
Derlin-1 mRNA knockdown (KD) (Derlin-1 mRNA [3]; B721.221, 5 nM siRNA): 52%
Derlin-1 mRNA knockdown (KD) (Derlin-1 mRNA [3]; B721.221, 10 nM siRNA): 50%
Derlin-1 knockdown, FIG. 9 Western blot (Derlin-1; Lane 1): 49%
Derlin-1 knockdown, FIG. 9 Western blot (Derlin-1; Lane 2): 57%
Derlin-1 knockdown, FIG. 9 Western blot (Derlin-1; Lane 5): 67%
Derlin-1 knockdown, FIG. 9 Western blot (Derlin-1; Lane 6): 72%

Molecule: CC1(C)CCC(C)(C)c2cc(C3(c4ccc(C(=O)O)cc4)OCCO3)ccc21 [SR11237, reference compound]
HLA-E expression of immature MoDC cells (HLA-E): dramatically induced
HLA-G expression of immature MoDC cells (HLA-G [4]): little or no effect
HLA G expression in CD8+ T cells (HLA-G [5]): no further increase

OD (the three HLA-E preps [6]): 0.02 OD
OD (the three HLA-E preps [7]): 0.2 OD and > 0.3 OD
fold increment of OD (against the 0.02 OD at 0.1 µg/ml peptide) (the three HLA-E preps [7]): 10 fold and 15 fold
Molecule: NPRKVTAYL (also: biotinylated, position not given here) [biotinylated HLA-A2 leader peptide (SEQ ID NO: 50, …)]
